In patent US12201610B2, “Compositions comprising aticaprant” (Janssen Pharmaceuticals, Inc., priority 2022, dated 2025):

Key:
Format in all cases: in vivo, human
subjects with MDD [1] = experiment: HAM-A6 total score (Example 6); settings: 10 mg; Treatment Week 6; 59 subjects analyzed
Description: (§1) v. To investigate the effect of aticaprant on symptoms of anxiety using the HAM-A and on core symptoms of anxiety using the HAM-A6 subscale.
(§2) • (i) Depression: Montgomery-Åsberg Depression Rating Scale (MADRS), Clinical Global Impression-Severity (CGI-S), Symptoms of Major Depressive Disorder Scale (SMDDS), and Self-assessment of treatment experience (SATE) • (ii) Anhedonia: Snaith-Hamilton Pleasure Scale (SHAPS) • (iii) Anxiety: Structured Interview Guide for the Hamilton Anxiety scale (SIGH-A) and HAM-A6 • (iv) Effects on Cognition: The Cognitive and Physical Functioning Questionnaire (CPFQ) • (v) Safety assessments

subjects with MDD [2] = experiment: Treatment-emergent adverse events, full safety analysis set (Example 6)
subjects with MDD [3] = experiment: CGI-S total score (Example 6); settings: 10 mg; 59 subjects analyzed; 'at Treatment' (week not given)
Description: CGI-S is a scale that rates the severity of the subject's illness at the time of assessment, relative to the clinician's past experience with subjects who have the same diagnosis and improvement with treatment. CGI-S provides an overall clinician-determined summary measure of severity of subject's illness that considers all available information, including knowledge of subject's history, psychosocial circumstances, symptoms, behavior, and impact of symptoms on subject's ability to function. CGI-S evaluates severity of psychopathology on scale of 0 to 7. Subject is assessed on severity of mental illness at time of rating according to: 0=not assessed; 1=normal (not at all ill); 2=borderline mentally ill; 3=mildly ill; 4=moderately ill; 5=markedly ill; 6=severely ill; 7=among most extremely ill patients.
iv. To investigate the effect of aticaprant on symptoms of depression using the Clinical Global Impression-Severity (CGI-S), the patient reported Symptoms of Major Depressive Disorder Scale (SMDDS) and the self-assessment of treatment experience (SATE). […]

subjects with MDD [4] = experiment: SATE score (Example 6); settings: Treatment Week 6, aticaprant 10 mg
Description: SATE is a one to three questionnaire administered when the subject is unable to complete other evaluations, i.e., away from the clinical setting such as at home. SATE is useful to evaluate improvement or deterioration of depressive symptoms of the subjects over a short period of time. […] See, Table 6.
iv. To investigate the effect of aticaprant on symptoms of depression using the Clinical Global Impression-Severity (CGI-S), the patient reported Symptoms of Major Depressive Disorder Scale (SMDDS) and the self-assessment of treatment experience (SATE).
as §2

subjects with MDD [5] = experiment: SIGH-A score (Example 6); settings: 10 mg; Treatment Week 6; 59 subjects analyzed
Description: as §1, §2

[6] = Body weight by treatment group (Example 6)
Protocol: Treatment with aticaprant as described herein has several advantages over the treatments in the art. […] As used herein, the term “weight gain” refers to an increase in the weight of patient, relative to the weight of the patient before taking aticaprant or the weight of the patient that is assessed at the time of the initial administration of aticaprant. In certain embodiments, the patient may actually see a decrease in overall weight, relative to the weight of the patient before taking aticaprant.
At the lead-in baseline timepoint, the mean weight for subjects in the placebo group was 76.17 kg compared to 78.66 in the aticaprant group. After 6 weeks in the double-blind treatment phase, the mean weight in the placebo group was 75.75 kg compared to 78.57 kg in the aticaprant group. […] This is unexpected because other adjunctive treatments for MDD result in a mean weight increase. See, Thase M, et al. J Clin Psych. 2015: 76(9), 1224-1231; Thase, J Clin Psych. 2015, 76(9): 1232-1240; El Khalili, Int J Neuropsychopharmacol. 2010, 13, 917-932; Marcus, J. Clin. Psychopharmacol. […] Nashville, Tenn, ACNP, 2008; Earley, American College of Neuropsychopharmacology, 2007, Annual Meeting Abstracts (Boca Raton, Fla, Dec. 9-13, 2007). Nashville, TN, ACNP, 2007). See, Table 45.

subjects with MDD [7] = experiment: ASEX sexual functioning score (Example 6)
Description: As used herein, the term “decrease in sexual functioning” refers to reducing or lessening of one or more components of the human sex drive, i.e., sexual functioning. In some embodiments, the sexual functioning comprises one or more of sexual drive, sexual arousal, vaginal lubrication, erection, orgasm achievement, or orgasm satisfaction. In other embodiments, the sexual functioning comprises sexual drive. In further embodiments, the sexual functioning comprises vaginal lubrication satisfaction. In further embodiments, the sexual functioning comprises orgasm achievement. In yet other embodiments, the sexual functioning comprises orgasm satisfaction. Desirably, the patient's sexual functioning is assessed at the time of initial administration of aticaprant. Thus, the patient's sexual functioning while taking aticaprant can be compared to the patient's sexual functioning before administration of aticaprant. Sexual functioning may be assessed by using standard scales and techniques such as the Arizona Sexual Experience Scale (ASEX). The ASEX is used to investigate whether aticaprant has a further positive or negative effect on sexual function. The ASEX is 5 item rating scale administered to patients that quantifies sexual drive, sexual arousal, vaginal lubrication or penile erection, ability to reach orgasm and satisfaction. Scores range from 5 to 30, and two different versions of the scale are available (males and females).
Patients had their sexual functioning measured using a standard, well accepted rating scale: ASEX. See, Table 48.

[8] = TEAE in >= 5% of subjects, Treatment Period, Full Safety Analysis Set, aticaprant 10 mg (N = 85), Table 40
[9] = TEAE of Special Interest, Treatment Period, Full Safety Analysis Set, aticaprant 10 mg (N = 85), Table 41
[10] = Treatment Period, Full Safety Analysis Set, aticaprant 10 mg (N = 85)

## Cc1cc(C)cc(C2CCCN2Cc2ccc(Oc3ccc(C(N)=O)cc3F)cc2)c1 (stereo not drawn) [aticaprant, 3-fluoro-4-4-2-(3,5-dimethylphenyl)pyrrolidin-1-yl-methylphenoxybenzamide]
Subjects with MDD [1]
  Change from Treatment Baseline in HAM-A6 Total Score, Arithmetic Mean (SD): −2.73 ± 2.651 scores on a scale
Subjects with MDD [2]; [8]
  Diarrhea, %: 8%
  Gastrointestinal Disorders, %: 14%
  Headache, %: 12%
  Infections And Infestations, %: 15%
  Nasopharyngitis, %: 6%
  Nervous System Disorders, %: 15%
  Pruritus, %: 6%
  Skin And Subcutaneous Tissue Disorders, %: 7%
  Total no. Subjects with Adverse Events, %: 47%
Subjects with MDD [2]; [9]
  Abdominal Pain, %: 1.2%
  Diarrhea, %: 8.2%
  Dyspepsia, %: 1.2%
  Gastrointestinal Disorders, %: 10.6%
  Pruritus, %: 5.9%
  Skin And Subcutaneous Tissue Disorders, %: 5.9%
  Total no. Subjects with Adverse Events of Special Interest, %: 15.3%
Subjects with MDD [2]; [10]
  Subjects with TEAE leading to discontinuation of agent, %: (1.2) %
  Total subjects affected by non-serious adverse events, %: (27.1%)
Subjects with MDD [2]; Treatment Period, Full Safety Analysis Set, aticaprant 10 mg (N = 85), Table 39
  Subjects with 1 or more TEAE, %: (47.1) %
Subjects with MDD [2]; Treatment Period, Full Safety Analysis Set, aticaprant 10 mg (N = 85), possible, probable, very likely
  Subjects with drug-related TEAE, %: (23.5) %
Subjects with MDD [2]; due to diarrhea, nausea, vomiting and headache
  subjects who discontinued during the treatment period due to TEAEs: 1 subject
Subjects with MDD [2]; full safety analysis set, 40/85 subjects
  subjects with at least one TEAE during the treatment period: 47.1%
Subjects with MDD [2]; treatment period
  patients with acute cholecystitis: 0 patients
Subjects with MDD [2]; treatment period, 5/85 subjects
  subjects with pruritus (TEAE of special interest): 5.9%
Subjects with MDD [2]; treatment period, 7/85 subjects
  subjects with diarrhea (TEAE): 8.2%
Subjects with MDD [2]; treatment period, 10/85 subjects
  subjects with headache (TEAE): 11.8%
Subjects with MDD [2]; treatment period, 13/85 subjects
  subjects with TEAEs of special interest: 15.3%
Subjects with MDD [3]
  Change from Treatment Baseline in CGI-S Total Score, Arithmetic Mean (SD): −0.92 ± 1.039 Scores on a scale
Subjects with MDD [4]; n = 0
  SATE: Depression Worsened (Much worse): 0 subjects
  SATE: Depression Worsened (Slightly worse): 0 subjects
  SATE: Depression Worsened (Very much worse): 0 subjects
Subjects with MDD [4]; n = 21
  SATE: Depression Much improved: 6 subjects
  SATE: Depression Slightly improved: 15 subjects
  SATE: Depression Very Much Improved: 0 subjects
Subjects with MDD [4]; n = 30
  SATE: Overall Depression (Got worse): 0 subjects
  SATE: Overall Depression (Improved): 21 subjects
  SATE: Overall Depression (Not changed): 9 subjects
Subjects with MDD [5]
  Change from Treatment Baseline in SIGH-A score, Arithmetic Mean (SD): −5.85 ± 5.369 scores on a scale
[6]; Lead-in Baseline, n = 85
  Mean weight, mean (SE): 78.66 (1.65) kg
[6]; Screening, n = 85
  Mean weight, mean (SE): 78.42 (1.65) kg
[6]; Withdrawal Baseline, n = 85
  Mean weight, mean (SE): 78.57 (1.71) kg
[6]; after 6 weeks in the double-blind treatment phase
  mean weight: 78.57 kg
[6]; lead-in baseline timepoint
  mean weight: 78.66 kg
[6]; n = 85
  Weight Absolute Change (Withdrawal—Lead-in): -0.09 kg
  Weight Relative % Change: −0.11%
Subjects with MDD [7]; Baseline, n = 85
  ASEX score: 21.26
Subjects with MDD [7]; Endpoint, n = 85
  ASEX score: 19.79
Subjects with MDD [7]; n = 85
  ASEX score Relative % Change: −6.91%
Subjects with MDD [7]; n = 85, lower score indicates improvement
  ASEX score Absolute Change: −1.47
Subjects with MDD [7]; to week 6, lower score indicates improvement
  ASEX total score mean change from treatment baseline (SD): −1.5 (4.02) points
